In ChEMBL document CHEMBL1201862, “PubChem BioAssay data set” (2004):
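Where inhibition never reached the appropriate level, the endpoint shown equals the highest concentration tested. Otherwise, values were interpolated linearly from a five-concentration, 48-hour dose response in 96-well plates. GI50 = concentration required for 50% inhibition of growth.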 Active and inactive are the calls of the source. Rule as the data show it: active = GI50 up to about 1.1 µM and inactive = higher.

Columns and labels:
Assay in all cases: DTP human tumour cell line panel, 48 h
[1] = tested on: KM12
[2] = tested on: HCT-15
[3] = tested on: MDA-N
[4] = tested on: IGROV-1
[5] = tested on: PC-3
[6] = tested on: A498
[7] = tested on: HOP-62
[8] = tested on: SNB-75
[9] = tested on: MOLT-4
[10] = tested on: RPMI-8226
[11] = tested on: UO-31
[12] = tested on: OVCAR-5
[13] = tested on: CCRF-CEM
[14] = tested on: HOP-92
[15] = tested on: HCC 2998
[16] = tested on: MDA-MB-231
[17] = tested on: Malme-3M
[18] = tested on: CAKI-1
[19] = tested on: MDA-MB-435
[20] = tested on: NCI-H460
[21] = tested on: SF-539
[22] = tested on: ACHN
[23] = tested on: UACC-257
[24] = tested on: SK-MEL-5
[25] = tested on: SN12C
[26] = tested on: SF-295
[27] = tested on: TK-10
[28] = tested on: NCI/ADR-RES
[29] = tested on: DU-145
[30] = tested on: SR
[31] = tested on: OVCAR-8
[32] = tested on: U-251
[33] = tested on: HT-29
[34] = tested on: A549
[35] = tested on: EKVX
[36] = tested on: HCT-116
[37] = tested on: NCI-H226
[38] = tested on: COLO 205
[39] = tested on: K562
[40] = tested on: 786-0
[41] = tested on: OVCAR-3
[42] = tested on: SNB-19
[43] = tested on: OVCAR-4
[44] = tested on: NCI-H522
[45] = tested on: NCI-H23
[46] = tested on: MCF7
[47] = tested on: BT-549
[48] = tested on: Hs-578T
[49] = tested on: SK-MEL-28
[50] = tested on: SF-268
[51] = tested on: LOX IMVI
[52] = tested on: RXF 393
[53] = tested on: HL-60
[54] = tested on: SW-620
[55] = tested on: M14
[56] = tested on: SK-OV-3
[57] = tested on: T47D
[58] = tested on: UACC-62
[59] = tested on: SK-MEL-2

## Nc1nc(Cl)c(/C=N\O)c(NCC2(CO)CCC2)n1
[1]
  GI50: 6.25 µM (inactive)
[2]
  GI50: 60.8 µM
[3]
  GI50: 44.4 µM (inactive)
[4]
  GI50: > 10 µM (inactive)
[5]
  GI50: 43 µM (inactive)
[6]
  GI50: 19.1 µM (inactive)
[7]
  GI50: 30.6 µM (inactive)
[8]
  GI50: 59.3 µM (inactive)
[9]
  GI50: 13.5 µM (inactive)
[10]
  GI50: 8.11 µM (inactive)
[11]
  GI50: 19.9 µM (inactive)
[12]
  GI50: 70.8 µM (inactive)
[13]
  GI50: 28.5 µM (inactive)
[14]
  GI50: 19.6 µM (inactive)
[15]
  GI50: 68.7 µM (inactive)
[16]
  GI50: 51.2 µM (inactive)
[17]
  GI50: 30.6 µM (inactive)
[18]
  GI50: 25.6 µM (inactive)
[19]
  GI50: 40.2 µM (inactive)
[20]
  GI50: 32.1 µM (inactive)
[21]
  GI50: 33.8 µM (inactive)
[22]
  GI50: 26.3 µM (inactive)
[23]
  GI50: 29.3 µM (inactive)
[24]
  GI50: 28.8 µM (inactive)
[25]
  GI50: 68.4 µM (inactive)
[26]
  GI50: 21.2 µM (inactive)
[27]
  GI50: 21.8 µM (inactive)
[28]
  GI50: 28.5 µM (inactive)
[29]
  GI50: 40.4 µM (inactive)
[30]
  GI50: 11.6 µM (inactive)
[31]
  GI50: 36.2 µM (inactive)
[32]
  GI50: > 100 µM (inactive)
[33]
  GI50: 59.3 µM (inactive)
[34]
  GI50: 28.4 µM (inactive)
[35]
  GI50: 17.3 µM (inactive)
[36]
  GI50: 13.7 µM (inactive)
[37]
  GI50: 23.2 µM (inactive)
[38]
  GI50: 30.3 µM (inactive)
[39]
  GI50: 14 µM (inactive)
[40]
  GI50: 41.7 µM (inactive)
[41]
  GI50: 24.2 µM (inactive)
[42]
  GI50: 53.2 µM (inactive)
[43]
  GI50: 27 µM (inactive)
[44]
  GI50: 14.8 µM (inactive)
[45]
  GI50: 1.73 µM (inactive)
[46]
  GI50: 25.2 µM (inactive)
[47]
  GI50: 32.6 µM (inactive)
[48]
  GI50: 28.2 µM (inactive)
[49]
  GI50: 54.6 µM (inactive)
[50]
  GI50: > 100 µM (inactive)
[51]
  GI50: 9.95 µM (inactive)
[52]
  GI50: 22.4 µM (inactive)
[53]
  GI50: > 10 µM (inactive)
[54]
  GI50: > 100 µM (inactive)

## O=c1c2ccc(S(=O)(=O)c3ccc4c(=O)n5c6ccccc6nc5c5cccc3c45)c3cccc(c32)c2nc3ccccc3n12
[55]
  GI50: > 100 µM (inactive)
[1]
  GI50: > 100 µM (inactive)
[2]
  GI50: 93.5 µM
[4]
  GI50: 1.98 µM (inactive)
[5]
  GI50: > 100 µM (inactive)
[7]
  GI50: 37.8 µM (inactive)
[56]
  GI50: 5.26 µM (inactive)
[10]
  GI50: > 100 µM (inactive)
[11]
  GI50: 39.9 µM (inactive)
[12]
  GI50: > 100 µM (inactive)
[15]
  GI50: > 100 µM (inactive)
[16]
  GI50: 19.4 µM (inactive)
[17]
  GI50: > 100 µM (inactive)
[57]
  GI50: 36.6 µM (inactive)
[18]
  GI50: > 100 µM (inactive)
[19]
  GI50: > 100 µM (inactive)
[20]
  GI50: > 100 µM (inactive)
[21]
  GI50: 28.7 µM (inactive)
[22]
  GI50: 15.2 µM (inactive)
[23]
  GI50: > 100 µM (inactive)
[24]
  GI50: > 100 µM (inactive)
[25]
  GI50: > 100 µM (inactive)
[26]
  GI50: 15.3 µM (inactive)
[27]
  GI50: 21.8 µM (inactive)
[28]
  GI50: > 100 µM (inactive)
[29]
  GI50: 59.6 µM (inactive)
[31]
  GI50: 47.9 µM (inactive)
[32]
  GI50: 9.06 µM (inactive)
[33]
  GI50: > 100 µM (inactive)
[34]
  GI50: > 100 µM (inactive)
[58]
  GI50: 45.5 µM (inactive)
[35]
  GI50: 43.9 µM (inactive)
[36]
  GI50: > 100 µM (inactive)
[37]
  GI50: 41.6 µM (inactive)
[38]
  GI50: > 100 µM (inactive)
[59]
  GI50: 21.3 µM (inactive)
[40]
  GI50: 29.5 µM (inactive)
[41]
  GI50: > 100 µM (inactive)
[42]
  GI50: 16.6 µM (inactive)
[44]
  GI50: 27.7 µM (inactive)
[45]
  GI50: 96.6 µM (inactive)
[46]
  GI50: > 100 µM (inactive)
[47]
  GI50: 20 µM (inactive)
[49]
  GI50: > 100 µM (inactive)
[50]
  GI50: 33.5 µM (inactive)
[51]
  GI50: > 100 µM (inactive)
[52]
  GI50: 14.3 µM (inactive)
